Assay results reported in ChEMBL document CHEMBL1201862, “PubChem BioAssay data set” (2004).
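The compound was tested at five concentrations on cells cultured in 96-well plates, with a 48-hour exposure period. Abbreviation: GI50, concentration required for 50% inhibition of growth.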 Activity calls are given as the source filed them. No stated cut-off is given here; in the data, active = GI50 up to about 1.1 µM and inactive = higher.

Tests used:
Experiment in all cases: NCI tumour cell line growth inhibition, 48 h
[1] = system: 786-0
[2] = system: A498
[3] = system: A549
[4] = system: ACHN
[5] = system: BT-549
[6] = system: CCRF-CEM
[7] = system: COLO 205
[8] = system: DU-145
[9] = system: EKVX
[10] = system: HCC 2998
[11] = system: HCT-15
[12] = system: HOP-62
[13] = system: HT-29
[14] = system: Hs-578T
[15] = system: IGROV-1
[16] = system: K562
[17] = system: KM12
[18] = system: LOX IMVI
[19] = system: M14
[20] = system: MCF7
[21] = system: MDA-MB-231
[22] = system: MDA-MB-435
[23] = system: MDA-N
[24] = system: MOLT-4
[25] = system: Malme-3M
[26] = system: NCI-H226
[27] = system: NCI-H23
[28] = system: NCI-H460
[29] = system: NCI-H522
[30] = system: NCI/ADR-RES
[31] = system: OVCAR-3
[32] = system: OVCAR-4
[33] = system: OVCAR-5
[34] = system: OVCAR-8
[35] = system: PC-3
[36] = system: RXF 393
[37] = system: SF-268
[38] = system: SF-295
[39] = system: SF-539
[40] = system: SK-MEL-28
[41] = system: SK-MEL-2
[42] = system: SK-MEL-5
[43] = system: SK-OV-3
[44] = system: SN12C
[45] = system: SNB-19
[46] = system: SNB-75
[47] = system: SW-620
[48] = system: T47D
[49] = system: TK-10
[50] = system: U-251
[51] = system: UACC-62
[52] = system: UO-31
[53] = system: CAKI-1
[54] = system: HCT-116
[55] = system: HOP-92
[56] = system: RPMI-8226
[57] = system: SR
[58] = system: UACC-257
[59] = system: HL-60

## CC(=O)N1N(c2ccc([N+](=O)[O-])cc2)C(=O)C1(C)C
[1]
  GI50: 18.1 µM (inactive)
[2]
  GI50: 37.9 µM (inactive)
[3]
  GI50: > 10 µM (inactive)
[4]
  GI50: 19.7 µM (inactive)
[5]
  GI50: 11.9 µM (inactive)
[6]
  GI50: 7.08 µM (inactive)
[7]
  GI50: 15.5 µM (inactive)
[8]
  GI50: 35.6 µM (inactive)
[9]
  GI50: 17.3 µM (inactive)
[10]
  GI50: 15.8 µM (inactive)
[11]
  GI50: 15.7 µM
[12]
  GI50: 19.3 µM (inactive)
[13]
  GI50: 16.6 µM (inactive)
[14]
  GI50: 33.5 µM (inactive)
[15]
  GI50: 20.6 µM (inactive)
[16]
  GI50: 17 µM (inactive)
[17]
  GI50: 16.7 µM (inactive)
[18]
  GI50: 11.6 µM (inactive)
[19]
  GI50: 10.8 µM (inactive)
[20]
  GI50: 23.6 µM (inactive)
[21]
  GI50: 20.1 µM (inactive)
[22]
  GI50: 20.6 µM (inactive)
[23]
  GI50: 30.5 µM (inactive)
[24]
  GI50: 15.5 µM (inactive)
[25]
  GI50: 19.6 µM (inactive)
[26]
  GI50: 21.1 µM (inactive)
[27]
  GI50: 16.7 µM (inactive)
[28]
  GI50: 29.4 µM (inactive)
[29]
  GI50: 12.1 µM (inactive)
[30]
  GI50: 30.8 µM (inactive)
[31]
  GI50: 19.3 µM (inactive)
[32]
  GI50: 19.2 µM (inactive)
[33]
  GI50: 23.3 µM (inactive)
[34]
  GI50: 23.2 µM (inactive)
[35]
  GI50: 15.7 µM (inactive)
[36]
  GI50: 18 µM (inactive)
[37]
  GI50: 29.4 µM (inactive)
[38]
  GI50: 31.4 µM (inactive)
[39]
  GI50: 20.9 µM (inactive)
[40]
  GI50: 17.9 µM (inactive)
[41]
  GI50: 19.1 µM (inactive)
[42]
  GI50: 16.9 µM (inactive)
[43]
  GI50: 48 µM (inactive)
[44]
  GI50: 16.5 µM (inactive)
[45]
  GI50: 50.4 µM (inactive)
[46]
  GI50: 18.7 µM (inactive)
[47]
  GI50: 13.4 µM (inactive)
[48]
  GI50: 39.3 µM (inactive)
[49]
  GI50: 17.1 µM (inactive)
[50]
  GI50: 21.7 µM (inactive)
[51]
  GI50: 18.5 µM (inactive)
[52]
  GI50: 17.1 µM (inactive)

## O=C(NCc1cccc(C(F)(F)F)c1)c1cc2sccc2nc1C(F)(F)F
[1]
  GI50: 25.5 µM (inactive)
[3]
  GI50: > 100 µM (inactive)
[4]
  GI50: 38.7 µM (inactive)
[5]
  GI50: > 100 µM (inactive)
[53]
  GI50: 62.1 µM (inactive)
[6]
  GI50: > 100 µM (inactive)
[7]
  GI50: > 100 µM (inactive)
[9]
  GI50: > 100 µM (inactive)
[54]
  GI50: > 100 µM (inactive)
[12]
  GI50: 33.8 µM (inactive)
[55]
  GI50: 50.9 µM (inactive)
[13]
  GI50: > 100 µM (inactive)
[14]
  GI50: 26.9 µM (inactive)
[15]
  GI50: > 100 µM (inactive)
[16]
  GI50: > 100 µM (inactive)
[17]
  GI50: > 100 µM (inactive)
[19]
  GI50: > 100 µM (inactive)
[20]
  GI50: > 100 µM (inactive)
[21]
  GI50: 51.4 µM (inactive)
[22]
  GI50: > 100 µM (inactive)
[23]
  GI50: > 100 µM (inactive)
[24]
  GI50: 82.2 µM (inactive)
[25]
  GI50: > 100 µM (inactive)
[26]
  GI50: 98.9 µM (inactive)
[27]
  GI50: > 100 µM (inactive)
[29]
  GI50: 62.7 µM (inactive)
[30]
  GI50: > 100 µM (inactive)
[31]
  GI50: 83.4 µM (inactive)
[32]
  GI50: 32.7 µM (inactive)
[33]
  GI50: > 100 µM (inactive)
[34]
  GI50: 88.7 µM (inactive)
[35]
  GI50: > 100 µM (inactive)
[56]
  GI50: > 100 µM (inactive)
[36]
  GI50: 27.7 µM (inactive)
[37]
  GI50: 64 µM (inactive)
[38]
  GI50: 46.7 µM (inactive)
[39]
  GI50: 63.7 µM (inactive)
[40]
  GI50: > 100 µM (inactive)
[41]
  GI50: > 100 µM (inactive)
[42]
  GI50: 93.1 µM (inactive)
[43]
  GI50: 81.5 µM (inactive)
[44]
  GI50: 98.9 µM (inactive)
[45]
  GI50: 34.6 µM (inactive)
[57]
  GI50: > 100 µM (inactive)
[47]
  GI50: > 100 µM (inactive)
[48]
  GI50: > 100 µM (inactive)
[49]
  GI50: 64 µM (inactive)
[50]
  GI50: 27.4 µM (inactive)
[58]
  GI50: > 100 µM (inactive)
[51]
  GI50: > 100 µM (inactive)
[52]
  GI50: > 100 µM (inactive)

## COc1ccccc1N1C(=O)/C(=C\c2cc(OC)c(OC)c(OC)c2)SC1c1ccccc1 (centres undefined)
[1]
  GI50: 97.5 µM (inactive)
[2]
  GI50: > 100 µM (inactive)
[3]
  GI50: 57.4 µM (inactive)
[4]
  GI50: 44.4 µM (inactive)
[5]
  GI50: 84.9 µM (inactive)
[53]
  GI50: > 100 µM (inactive)
[6]
  GI50: 6.76 µM (inactive)
[7]
  GI50: 24.1 µM (inactive)
[8]
  GI50: > 100 µM (inactive)
[9]
  GI50: 13.2 µM (inactive)
[10]
  GI50: > 100 µM (inactive)
[54]
  GI50: 18.5 µM (inactive)
[11]
  GI50: 44.7 µM
[59]
  GI50: 26.2 µM (inactive)
[12]
  GI50: 27.8 µM (inactive)
[55]
  GI50: 22.7 µM (inactive)
[13]
  GI50: 45.3 µM (inactive)
[14]
  GI50: 24 µM (inactive)
[16]
  GI50: 4.33 µM (inactive)
[17]
  GI50: 21.1 µM (inactive)
[18]
  GI50: 26.9 µM (inactive)
[19]
  GI50: 16.5 µM (inactive)
[20]
  GI50: 18.2 µM (inactive)
[21]
  GI50: 44.8 µM (inactive)
[22]
  GI50: 14.9 µM (inactive)
[23]
  GI50: 15.2 µM (inactive)
[24]
  GI50: 9.95 µM (inactive)
[25]
  GI50: 20.3 µM (inactive)
[26]
  GI50: 28.9 µM (inactive)
[27]
  GI50: 31.4 µM (inactive)
[28]
  GI50: 51.5 µM (inactive)
[29]
  GI50: 13.7 µM (inactive)
[30]
  GI50: 43 µM (inactive)
[31]
  GI50: 37.5 µM (inactive)
[32]
  GI50: 49.4 µM (inactive)
[33]
  GI50: > 100 µM (inactive)
[34]
  GI50: 42 µM (inactive)
[56]
  GI50: 3.11 µM (inactive)
[36]
  GI50: 14.5 µM (inactive)
[37]
  GI50: 31.6 µM (inactive)
[38]
  GI50: 23.1 µM (inactive)
[39]
  GI50: 99.3 µM (inactive)
[40]
  GI50: 45.4 µM (inactive)
[41]
  GI50: 68.4 µM (inactive)
[42]
  GI50: 14.2 µM (inactive)
[43]
  GI50: 21.4 µM (inactive)
[44]
  GI50: 91 µM (inactive)
[45]
  GI50: 27 µM (inactive)
[57]
  GI50: 13.3 µM (inactive)
[47]
  GI50: 53.1 µM (inactive)
[48]
  GI50: 36.6 µM (inactive)
[49]
  GI50: 53.3 µM (inactive)
[50]
  GI50: 24.4 µM (inactive)
[58]
  GI50: 36.1 µM (inactive)
[51]
  GI50: 36.1 µM (inactive)
[52]
  GI50: 11.5 µM (inactive)
